# Laboratory results taken from PMC11641208, “Advanced PROTAC and Quantitative Proteomics Strategy Reveals Bax Inhibitor-1 as a Critical Target of Icaritin in Burkitt Lymphoma” (International Journal of Molecular Sciences, 2024).
# Target: T1, Bax inhibitor-1 (BI-1) (Homo sapiens, UniProt P55061)
# T1 construct: gene TMBIM6
# Experiment: SPR (Biacore T200, BI-1 immobilised on CM5 chip, kinetic […] fit)
# Format: binding
# T1 sequence (P55061 whole entry): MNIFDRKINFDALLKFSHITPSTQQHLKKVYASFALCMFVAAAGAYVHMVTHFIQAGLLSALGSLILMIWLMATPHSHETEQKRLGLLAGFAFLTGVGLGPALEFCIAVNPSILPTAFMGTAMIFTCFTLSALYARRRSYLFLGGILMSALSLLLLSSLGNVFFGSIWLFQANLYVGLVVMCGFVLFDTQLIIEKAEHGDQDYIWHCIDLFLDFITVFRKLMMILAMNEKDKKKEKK
structure (smiles),measurement,value
"C#CCOc1cc(O)c2c(=O)c(OCCOCCOCCOCC(=O)NCCCCCC(=O)Nc3cccc4c3CN(C3CCC(=O)NC3=O)C4=O)c(-c3ccc(OC)cc3)oc2c1CC=C(C)C (stereo not shown) [compound 10, LJ-41]",Kd,79.7 µM
